Test results reported in ChEMBL document CHEMBL1143364, “Preliminary evaluation of pharmacological properties of some xanthone derivatives” (Bioorg Med Chem, 2009).
Activity calls are given as the source filed them. No cut-off for these calls is given here.

Legend:
[1] = system: Rattus norvegicus; assay: Antiarrhythmic activity in anaesthetized iv dosed Wistar rat assessed as decrease in adrenaline-induced cardiac rhythm disturbance administered 15 mins before adrenaline challenge; assay type: functional; details: Heart
[2] = system: Mus musculus; assay: Anticonvulsant activity in CF1 mouse assessed as inhibition of maximal electroshock-induced seizures at 100 mg/kg, ip after 4 hrs; assay type: functional, organism-based; design: dose 100 mg/kg
[3] = system: Mus musculus; assay: Anticonvulsant activity in CF1 mouse assessed as inhibition of maximal electroshock-induced seizures at 300 mg/kg, ip after 0.5 hrs; assay type: functional, organism-based; design: dose 300 mg/kg
[4] = target: Beta-1 adrenergic receptor (Rattus norvegicus, UniProt P18090); assay: biochemical
Sequence of Beta-1 adrenergic receptor (P18090 whole entry): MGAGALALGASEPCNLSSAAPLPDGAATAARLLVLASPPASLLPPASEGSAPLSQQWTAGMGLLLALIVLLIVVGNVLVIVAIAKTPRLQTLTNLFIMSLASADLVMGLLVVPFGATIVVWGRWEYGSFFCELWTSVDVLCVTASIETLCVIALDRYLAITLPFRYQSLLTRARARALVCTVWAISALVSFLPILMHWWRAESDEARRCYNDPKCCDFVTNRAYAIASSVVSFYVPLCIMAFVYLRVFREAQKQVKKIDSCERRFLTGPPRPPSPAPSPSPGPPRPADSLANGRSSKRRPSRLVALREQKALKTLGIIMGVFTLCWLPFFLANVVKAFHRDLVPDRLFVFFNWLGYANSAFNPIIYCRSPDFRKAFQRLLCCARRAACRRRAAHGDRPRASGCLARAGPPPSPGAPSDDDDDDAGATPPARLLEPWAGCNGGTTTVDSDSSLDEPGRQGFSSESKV
Description: Displacement of [3H]CGP12177 from beta-1 adrenergic receptor in rat cerebral cortex by liquid scintillation counting

[5] = system: Mus musculus; assay: Anticonvulsant activity in CF1 mouse assessed as inhibition of subcutaneous pentylenetetrazole-induced seizures; assay type: functional, organism-based
[6] = system: Mus musculus; assay: Anticonvulsant activity in CF1 mouse assessed as inhibition of maximal electroshock-induced seizures at 300 mg/kg, ip after 4 hrs; assay type: functional, organism-based; design: dose 300 mg/kg
[7] = system: Mus musculus; assay: Neurotoxicity in CF1 mouse at 30 mg/kg, ip after 0.5 hrs by rotarod test; assay type: toxicity, organism-based; design: dose 30 mg/kg, route intraperitoneal; details: in vivo
[8] = system: Mus musculus; assay: Neurotoxicity in CF1 mouse at 300 mg/kg, ip after 4 hrs by rotarod test; assay type: toxicity, organism-based; design: dose 300 mg/kg, route intraperitoneal; details: in vivo
[9] = system: Rattus norvegicus; assay: Hypotensive activity in normotensive Wistar rat assessed as reduction in diastolic blood pressure at 2.5 mg/kg, iv; assay type: functional, organism-based; design: dose 2.5 mg/kg; details: Artery
[10] = system: Mus musculus; assay: Neurotoxicity in CF1 mouse at 300 mg/kg, ip after 0.5 hrs by rotarod test; assay type: toxicity, organism-based; design: dose 300 mg/kg, route intraperitoneal; details: in vivo
[11] = system: Rattus norvegicus; assay: Cardiotoxicity in Wistar rat assessed as prolongation of PQ interval at 5 mg/kg, iv by ECG; assay type: toxicity, organism-based; design: dose 5 mg/kg, route intravenous; details: in vivo
[12] = system: Mus musculus; assay: Anticonvulsant activity in CF1 mouse assessed as inhibition of maximal electroshock-induced seizures at 30 mg/kg, ip after 0.5 hrs; assay type: functional, organism-based; design: dose 30 mg/kg
[13] = system: Mus musculus; assay: Neurotoxicity in CF1 mouse at 30 mg/kg, ip after 4 hrs by rotarod test; assay type: toxicity, organism-based; design: dose 30 mg/kg, route intraperitoneal; details: in vivo
[14] = target: T1, Adrenergic receptor alpha-1 (Rattus norvegicus, UniProt P15823+P23944+P43140); assay: Displacement of [3H]prazosin from alpha1 adrenergic receptor in rat cerebral cortex by liquid scintillation counting; assay type: tissue-based
T1 sequence (P15823 whole entry): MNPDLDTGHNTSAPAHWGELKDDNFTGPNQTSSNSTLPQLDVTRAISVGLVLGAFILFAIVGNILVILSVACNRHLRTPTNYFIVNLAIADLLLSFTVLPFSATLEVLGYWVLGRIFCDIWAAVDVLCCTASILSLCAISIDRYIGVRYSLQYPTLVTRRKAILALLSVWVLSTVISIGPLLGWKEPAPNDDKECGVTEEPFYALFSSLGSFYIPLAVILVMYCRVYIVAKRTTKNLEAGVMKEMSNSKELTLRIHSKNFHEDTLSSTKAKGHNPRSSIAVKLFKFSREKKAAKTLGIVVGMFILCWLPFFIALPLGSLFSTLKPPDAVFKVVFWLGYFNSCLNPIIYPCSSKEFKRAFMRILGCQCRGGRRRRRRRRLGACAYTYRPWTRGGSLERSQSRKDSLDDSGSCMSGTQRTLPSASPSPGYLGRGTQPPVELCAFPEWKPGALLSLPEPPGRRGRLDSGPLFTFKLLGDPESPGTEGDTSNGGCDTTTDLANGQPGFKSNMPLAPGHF
T1 sequence (P23944 whole entry): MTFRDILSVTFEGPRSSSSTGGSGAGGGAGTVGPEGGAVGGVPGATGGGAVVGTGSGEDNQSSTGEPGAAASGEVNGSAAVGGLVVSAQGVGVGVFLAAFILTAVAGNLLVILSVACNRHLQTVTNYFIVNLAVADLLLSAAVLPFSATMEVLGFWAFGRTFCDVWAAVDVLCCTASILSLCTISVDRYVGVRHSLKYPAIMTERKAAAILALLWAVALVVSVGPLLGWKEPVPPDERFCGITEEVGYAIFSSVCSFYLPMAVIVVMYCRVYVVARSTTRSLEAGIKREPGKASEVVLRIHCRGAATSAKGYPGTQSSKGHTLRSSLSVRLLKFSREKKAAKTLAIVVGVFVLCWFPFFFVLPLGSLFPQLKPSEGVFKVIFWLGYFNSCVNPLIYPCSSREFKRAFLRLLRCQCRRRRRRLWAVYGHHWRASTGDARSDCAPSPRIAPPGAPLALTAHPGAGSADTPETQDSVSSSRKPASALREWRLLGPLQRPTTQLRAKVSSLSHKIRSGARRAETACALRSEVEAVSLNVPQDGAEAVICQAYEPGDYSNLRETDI
T1 sequence (P43140 whole entry): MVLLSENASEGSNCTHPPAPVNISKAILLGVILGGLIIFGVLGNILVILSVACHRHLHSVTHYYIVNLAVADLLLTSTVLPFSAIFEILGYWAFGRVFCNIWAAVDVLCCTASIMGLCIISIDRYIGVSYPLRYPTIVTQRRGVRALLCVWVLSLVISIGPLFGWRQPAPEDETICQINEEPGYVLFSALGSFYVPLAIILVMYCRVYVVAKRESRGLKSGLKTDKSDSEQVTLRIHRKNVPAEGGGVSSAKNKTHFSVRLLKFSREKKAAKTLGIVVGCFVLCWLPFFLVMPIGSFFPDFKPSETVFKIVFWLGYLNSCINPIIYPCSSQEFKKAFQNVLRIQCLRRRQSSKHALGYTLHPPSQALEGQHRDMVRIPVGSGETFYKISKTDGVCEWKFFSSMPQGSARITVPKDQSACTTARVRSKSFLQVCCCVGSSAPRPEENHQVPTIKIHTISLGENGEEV

[15] = system: Mus musculus; assay: Neurotoxicity in CF1 mouse at 100 mg/kg, ip after 0.5 hrs by rotarod test; assay type: toxicity, organism-based; design: dose 100 mg/kg, route intraperitoneal; details: in vivo
[16] = system: Mus musculus; assay: Neurotoxicity in CF1 mouse at 100 mg/kg, ip after 4 hrs by rotarod test; assay type: toxicity, organism-based; design: dose 100 mg/kg, route intraperitoneal; details: in vivo
[17] = system: Mus musculus; assay: Anticonvulsant activity in CF1 mouse assessed as inhibition of maximal electroshock-induced seizures at 100 mg/kg, ip after 0.5 hrs; assay type: functional, organism-based; design: dose 100 mg/kg
[18] = system: Rattus norvegicus; assay: Cardiotoxicity in Wistar rat assessed as decrease in cardiac beats per minute at 5 mg/kg, iv by ECG; assay type: toxicity, organism-based, Heart; design: dose 5 mg/kg, route intravenous; scale not given: the % may be the effect or the level left; details: in vivo
[19] = system: Mus musculus; assay: Anticonvulsant activity in CF1 mouse assessed as inhibition of maximal electroshock-induced seizures at 30 mg/kg, ip after 4 hrs; assay type: functional, organism-based; design: dose 30 mg/kg
[20] = system: Rattus norvegicus; assay: Hypotensive activity in normotensive Wistar rat assessed as reduction in diastolic blood pressure at 10 mg/kg, iv; assay type: functional, Artery; design: scale not given: the % may be the effect or the level left
[21] = system: Rattus norvegicus; assay: Hypotensive activity in normotensive Wistar rat assessed as reduction in systolic blood pressure at 10 mg/kg, iv; assay type: functional; design: scale not given: the % may be the effect or the level left
[22] = system: Rattus norvegicus; assay: Hypotensive activity in normotensive Wistar rat assessed as reduction in blood pressure at 10 mg/kg, iv after 60 mins; assay type: functional, organism-based; design: dose 10 mg/kg
[23] = system: Rattus norvegicus; assay: Hypotensive activity in normotensive Wistar rat assessed as reduction in diastolic blood pressure at 5 mg/kg, iv; assay type: functional, Artery; design: scale not given: the % may be the effect or the level left
[24] = system: Rattus norvegicus; assay: Hypotensive activity in normotensive Wistar rat assessed as reduction in systolic blood pressure at 5 mg/kg, iv; assay type: functional, Artery; design: scale not given: the % may be the effect or the level left
[25] = system: Rattus norvegicus; assay: Cardiotoxicity in Wistar rat assessed as prolongation of QT interval at 10 mg/kg, iv by ECG; assay type: toxicity, organism-based; design: dose 10 mg/kg, route intravenous; details: in vivo
[26] = system: Rattus norvegicus; assay: Cardiotoxicity in Wistar rat assessed as decrease in cardiac beats per minute at 10 mg/kg, iv by ECG; assay type: toxicity, organism-based, Heart; design: dose 10 mg/kg, route intravenous; scale not given: the % may be the effect or the level left; details: in vivo
[27] = system: Rattus norvegicus; assay: Cardiotoxicity in Wistar rat assessed as prolongation of PQ interval at 10 mg/kg, iv by ECG; assay type: toxicity, organism-based; design: dose 10 mg/kg, route intravenous; details: in vivo
[28] = system: Rattus norvegicus; assay: Hypotensive activity in normotensive Wistar rat assessed as reduction in systolic blood pressure at 1.25 mg/kg, iv; assay type: functional, Artery; design: scale not given: the % may be the effect or the level left
[29] = system: Rattus norvegicus; assay: Antiarrhythmic activity in anaesthetized Wistar rat assessed as decrease in arrhythmia-induced mortality at 1.25 mg/kg, iv administered 15 mins before adrenaline challenge; assay type: functional, Heart; design: scale not given: the % may be the effect or the level left
[30] = system: Rattus norvegicus; assay: Hypotensive activity in normotensive Wistar rat assessed as reduction in diastolic blood pressure at 1.25 mg/kg, iv; assay type: functional, Artery; design: scale not given: the % may be the effect or the level left
[31] = system: Rattus norvegicus; assay: Hypotensive activity in normotensive Wistar rat assessed as reduction in blood pressure at 0.625 mg/kg, iv after 60 mins; assay type: functional, organism-based; design: dose 0.625 mg/kg

Compound	Ki [4]	Ki [14]	ED50 [1]	Activity [2]	Activity [3]	Activity [5]	Activity [6]	Activity [7]	Activity [8]	Activity [10]	Activity [12]	Activity [13]	Activity [15]	Activity [16]	Activity [17]	Activity [19]	Activity [1]	Activity [26]	also measured
CC(C)NCC(O)COc1cccc2ccccc12 (stereo not drawn) [PROPRANOLOL]			1.05 mg/kg																
CC(CO)(CO)NCC(O)COc1cccc2c(=O)c3ccccc3oc12.Cl (stereo not drawn)	4 nM	49.8 µM	1.75 mg/kg	inactive	inactive	inactive	inactive	Non-toxic	Non-toxic	25%	inactive	Non-toxic	Non-toxic	Non-toxic	inactive	inactive			Activity [9]: inactive; Activity [11]: Toxic; Activity [18]: 13%
C=CCNCC(O)COc1ccc2oc3ccccc3c(=O)c2c1.Cl (stereo not drawn)	30900 nM	4.9 µM		inactive	Active	inactive	Active	Non-toxic		Toxic	inactive	Non-toxic	Non-toxic	Non-toxic		inactive	Active		Activity [20]: 11%; Activity [21]: 10%
C=CCNCC(O)COc1ccc2c(=O)c3ccccc3oc2c1.Cl (stereo not drawn)	44400 nM	8.1 µM		inactive	Active	inactive	Active	Non-toxic	Non-toxic	Toxic	inactive	Non-toxic	Non-toxic	Non-toxic		inactive	Active		Activity [22]: Active
CC(C)(CO)NCC(O)COc1cccc2c(=O)c3ccc(Cl)cc3oc12.Cl (stereo not drawn)	11 nM	5.6 µM	2.46 mg/kg	inactive	inactive	inactive	inactive		Toxic	Toxic	inactive	Non-toxic			inactive	inactive		30%	Activity [28]: 17%; Activity [29]: 60%; Activity [25]: 13%; Activity [30]: 19%; Activity [31]: Active

The next lines start with results.

Ki [4]	Ki [14]	Compound	ED50 [1]	Activity [2]	Activity [3]	Activity [5]	Activity [6]	Activity [7]	Activity [8]	Activity [10]	Activity [12]	Activity [13]	Activity [15]	Activity [16]	Activity [17]	Activity [19]	Activity [1]	Activity [26]	also measured
84 nM	7.3 µM	C=CCNCC(O)COc1cccc2c(=O)c3ccccc3oc12.Cl (stereo not drawn)		inactive	inactive	inactive	inactive		Non-toxic	50%	inactive	Non-toxic		Non-toxic	inactive	inactive	Active	24%	Activity [23]: 11%; Activity [24]: 9%; Activity [25]: 17%
7700 nM	4.6 µM	C=CCNCCCOc1cccc2c(=O)c3ccccc3oc12.Cl		inactive		inactive		Non-toxic		Toxic	inactive	Non-toxic		Non-toxic	inactive	inactive	Active	20%	Activity [27]: Toxic
47 nM	20.6 µM	CC(CO)(CO)NCC(O)COc1cccc2c(=O)c3ccc(Cl)cc3oc12.Cl (stereo not drawn)		inactive	inactive	inactive	inactive	Non-toxic		Non-toxic	inactive		Non-toxic	Non-toxic	inactive	inactive	Active		Activity [9]: inactive; Activity [18]: 21%
2600 nM	8.7 µM	CC(C)(CO)NCCCOc1cccc2c(=O)c3ccccc3oc12.Cl		inactive	inactive	inactive	inactive	Non-toxic	Non-toxic	25%	inactive	Non-toxic	Non-toxic	Non-toxic	inactive	inactive	Active	15%	Activity [22]: Active; Activity [27]: Toxic
